Source: patent US8431567B2 (Abbott GmbH & Co. KG, priority 2006, dated 2013)

Target: T1, human vasopressin V1b receptor (Homo sapiens, UniProt P47901)
T1 construct: expressed in transfected cells; host or cells: CHO-K1 (cell line hV1b_3H2_CHO), membrane preparation
T1 sequence (P47901 1-424): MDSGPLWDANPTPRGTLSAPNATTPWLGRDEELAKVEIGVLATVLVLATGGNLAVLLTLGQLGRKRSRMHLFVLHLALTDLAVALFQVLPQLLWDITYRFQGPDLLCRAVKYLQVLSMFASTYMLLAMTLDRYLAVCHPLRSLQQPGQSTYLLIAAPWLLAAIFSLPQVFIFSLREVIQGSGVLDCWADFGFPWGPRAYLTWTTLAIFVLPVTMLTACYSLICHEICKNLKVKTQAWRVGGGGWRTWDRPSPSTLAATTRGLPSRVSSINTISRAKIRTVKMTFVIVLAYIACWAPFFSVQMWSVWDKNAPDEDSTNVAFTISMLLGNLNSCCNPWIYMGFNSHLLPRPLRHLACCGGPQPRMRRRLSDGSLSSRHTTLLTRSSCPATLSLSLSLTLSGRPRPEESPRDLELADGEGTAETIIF
Test: Vasopressin V1b receptor binding test
Conditions: membranes of CHO-K1 cells, displacement of 1.5 nM 3H-AVP
Method in brief: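 Radioligand competition binding to human V1b receptor membranes in 50 mM Tris, 10 mM MgCl2, 0.1% BSA, pH 7.4; nonspecific binding with 1 μM AVP.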

Compound	Ki
CCOc1ccc(OC)cc1C1(N2CCN(c3ccncc3)CC2)C(=O)N(S(=O)(=O)c2ccc(OC)cc2)c2ccc(C#N)cc21 (stereo not shown) [Example 62, 5-Cyano-3-(2-ethoxy-5-methoxyphenyl)-1-(4-methoxy-benzenesulphonyl)-3-(4-pyridin-4-yl-piperazin-1-yl)-2,3-dihydro-1H-indol-2-one]	< 50 nM
COc1ccc(S(=O)(=O)N2C(=O)C(c3cc(OC)ccc3OC)(N3CCN(c4ccncc4)CC3)c3cc(C#N)ccc32)cc1 (stereo not shown) [Example 63, 5-Cyano-3-(2,5-dimethoxyphenyl)-1-(4-methoxy-benzenesulphonyl)-3-(4-pyridin-4-yl-piperazin-1-yl)-2,3-dihydro-1H-indol-2-one]	< 50 nM
CCOc1c(OC)cccc1C1(N2CCN(c3ccnc(C(C)C)c3)CC2)C(=O)N(S(=O)(=O)c2ccc(OC)cc2OC)c2ccc(C#N)cc21 (stereo not shown) [Example 110, 5-Cyano-1-(2,4-dimethoxybenzenesulphonyl)-3-(2-ethoxy-3-methoxyphenyl)-3-[4-(2-isopropylpyridin-4-yl)-piperazin-1-yl]-2,3-dihydro-1H-indol-2-one×trifluoroacetic acid]	< 50 nM
CCOc1cc(OC)ccc1C1(N2CCN(c3ccnc(C(C)C)c3)CC2)C(=O)N(S(=O)(=O)c2ccc(OC)cc2OC)c2ccc(C#N)cc21 (stereo not shown) [Example 111, 5-Cyano-1-(2,4-dimethoxybenzenesulphonyl)-3-(2-ethoxy-4-methoxyphenyl)-3-[4-(2-isopropylpyridin-4-yl)-piperazin-1-yl]-2,3-dihydro-1H-indol-2-one×trifluoroacetic acid]	< 50 nM
CCOc1ccccc1C1(N2CCN(c3ccncc3)CC2)C(=O)N(S(=O)(=O)c2ccc(OC(C)C)cc2)c2ccc(C#N)cc21 (stereo not shown) [Example 113, 5-Cyano-3-(2-ethoxyphenyl)-1-(4-isopropoxybenzenesulphonyl)-3-(4-pyridin-4-yl-piperazin-1-yl)-2,3-dihydro-1H-indol-2-one×trifluoroacetic acid]	50 to 500 nM
CCOc1ccccc1C1(N2CCN(c3ccncc3)CC2)C(=O)N(S(=O)(=O)c2ccc(C)cc2F)c2ccc(C#N)cc21 (stereo not shown) [Example 115, 5-Cyano-3-(2-ethoxyphenyl)-1-(2-fluoro-4-methylbenzenesulphonyl)-3-(4-pyridin-4-yl-piperazin-1-yl)-2,3-dihydro-1H-indol-2-one]	50 to 500 nM
CCOc1ccc(OC)cc1C1(NCCNc2ccncc2)C(=O)N(S(=O)(=O)c2ccc(OC)cc2OC)c2ccc(C#N)cc21 (stereo not shown) [Example 122, 5-Cyano-1-(2,4-dimethoxybenzenesulphonyl)-3-(2-ethoxy-5-methoxyphenyl)-3-[2-(pyridin-4-ylamino)-ethylamino]-2,3-dihydro-1H-indol-2-one]	< 50 nM
